Data reported in PubChem BioAssay (NCI).
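Method: 48-hour compound exposure of cells in 96-well plates, five concentrations, linear interpolation of endpoints. TGI: total growth inhibition.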

Assays:
Test in all cases: growth of human tumour cells (NCI), 48 h
[1] = system: SK-MEL-28 melanoma
[2] = system: M14 melanoma
[3] = system: HT29 colon
[4] = system: CCRF-CEM leukemia
[5] = system: A498 renal
[6] = system: HOP-62 NSCLC
[7] = system: NCI-H522 lung
[8] = system: EKVX NSCLC
[9] = system: HCC-2998 colon
[10] = system: SN12C renal
[11] = system: SR leukemia
[12] = system: SNB-19 CNS
[13] = system: SK-OV-3 ovarian
[14] = system: SK-MEL-2 melanoma
[15] = system: PC-3 prostate
[16] = system: HOP-18 NSCLC
[17] = system: XF 498 CNS
[18] = system: HOP-92 NSCLC
[19] = system: KM20L2 colon
[20] = system: MCF7 breast
[21] = system: RPMI-8226 leukemia
[22] = system: UACC-62 melanoma
[23] = system: HS 578T breast
[24] = system: DLD-1 colon
[25] = system: DMS 273 small cell lung
[26] = system: ACHN renal
[27] = system: NCI-H226 lung
[28] = system: SK-MEL-5 melanoma
[29] = system: NCI/ADR-RES ovarian
[30] = system: 786-0 renal
[31] = system: CAKI-1 renal
[32] = system: HL-60(TB) leukemia
[33] = system: UO-31 renal
[34] = system: SF-295 CNS
[35] = system: TK-10 renal
[36] = system: OVCAR-4 ovarian
[37] = system: UACC-257 melanoma
[38] = system: SW-620 colon
[39] = system: OVCAR-3 ovarian
[40] = system: KM12 colon
[41] = system: MDA-N
[42] = system: BT-549 breast
[43] = system: MDA-MB-231 breast
[44] = system: SF-539 CNS
[45] = system: U251 CNS
[46] = system: MALME-3M melanoma
[47] = system: NCI-H460 lung
[48] = system: M19-MEL melanoma
[49] = system: SF-268 CNS
[50] = system: NCI-H23 lung
[51] = system: MOLT-4 leukemia
[52] = system: OVCAR-5 ovarian
[53] = system: DMS 114 small cell lung
[54] = system: HCT-116 colon
[55] = system: HCT-15 colon
[56] = system: IGROV1 ovarian
[57] = system: SNB-75 CNS
[58] = system: OVCAR-8 ovarian
[59] = system: A549 NSCLC
[60] = system: LXFL 529 NSCLC
[61] = system: SNB-78 CNS
[62] = system: T-47D breast
[63] = system: K-562 leukemia
[64] = system: LOX IMVI melanoma
[65] = system: MDA-MB-435
[66] = system: COLO 205 colon
[67] = system: DU-145 prostate
[68] = system: RXF 393 renal

Question: Which results are given for `COc1ccc2[nH]c3c(C)c4c(c(C)c3c2c1)CN(C)C=C4`?
Answer: TGI [1]: 13.5 µM; TGI [2]: 22.7 µM; TGI [3]: 22.3 µM; TGI [4]: 34.7 µM; TGI [5]: 21.3 µM; TGI [6]: 3.53 µM; TGI [7]: 6.34 µM; TGI [8]: 38.8 µM; TGI [9]: 13.9 µM; TGI [10]: 0.985 µM; TGI [11]: 46.3 µM; TGI [12]: 3.66 µM; TGI [13]: 56.6 µM; TGI [14]: 9.8 µM; TGI [15]: 81.3 µM; TGI [16]: 47.7 µM; TGI [17]: 5.78 µM; TGI [18]: 19.5 µM; TGI [19]: 21.1 µM; TGI [20]: > 100 µM; TGI [21]: 61.9 µM; TGI [22]: 28.1 µM; TGI [23]: 1.48 µM; TGI [24]: 32.2 µM; TGI [25]: 10.3 µM; TGI [26]: 64 µM; TGI [27]: 1.36 µM; TGI [28]: 6.75 µM; TGI [29]: > 100 µM; TGI [30]: 4.05 µM; TGI [31]: 57.5 µM; TGI [32]: 52.3 µM; TGI [33]: 81.1 µM; TGI [34]: 2.7 µM; TGI [35]: 65.8 µM; TGI [36]: 18.2 µM; TGI [37]: 16.8 µM; TGI [38]: 18.3 µM; TGI [39]: 34.9 µM; TGI [40]: 10.6 µM; TGI [41]: 34.6 µM; TGI [42]: 4.41 µM; TGI [43]: 70 µM; TGI [44]: 2 µM; TGI [45]: 1.45 µM; TGI [46]: 3.92 µM; TGI [47]: 11.2 µM; TGI [48]: 5.53 µM; TGI [49]: 0.815 µM; TGI [50]: 3.28 µM; TGI [51]: 37.7 µM; TGI [52]: 47 µM; TGI [53]: 3.05 µM; TGI [54]: 22.1 µM; TGI [55]: 75.1 µM; TGI [56]: 39.8 µM; TGI [57]: 0.698 µM; TGI [58]: 13.6 µM; TGI [59]: 23.6 µM; TGI [60]: 3.61 µM; TGI [61]: 4.91 µM; TGI [62]: 14.9 µM; TGI [63]: 46.5 µM; TGI [64]: 28.1 µM; TGI [65]: 71.2 µM; TGI [66]: 10.3 µM; TGI [67]: 33.8 µM; TGI [68]: 30.4 µM

Question: What does the source list for `CC(C)(C)C1=CC(=N/N=c2\scc(-c3ccccc3)n2Cc2ccccc2)C=C(C(C)(C)C)C1=O`?
Answer: TGI [1]: > 100 µM; TGI [2]: > 100 µM; TGI [3]: > 100 µM; TGI [4]: > 100 µM; TGI [5]: > 100 µM; TGI [6]: > 100 µM; TGI [8]: > 100 µM; TGI [9]: > 100 µM; TGI [10]: > 100 µM; TGI [11]: > 100 µM; TGI [12]: > 100 µM; TGI [14]: > 100 µM; TGI [17]: > 100 µM; TGI [19]: > 100 µM; TGI [22]: > 100 µM; TGI [25]: > 100 µM; TGI [26]: > 100 µM; TGI [27]: > 100 µM; TGI [28]: > 100 µM; TGI [30]: > 100 µM; TGI [31]: > 100 µM; TGI [32]: > 100 µM; TGI [33]: > 100 µM; TGI [34]: > 100 µM; TGI [36]: > 100 µM; TGI [37]: > 100 µM; TGI [38]: > 100 µM; TGI [39]: > 100 µM; TGI [44]: > 100 µM; TGI [45]: > 100 µM; TGI [46]: > 100 µM; TGI [47]: > 100 µM; TGI [48]: > 100 µM; TGI [49]: > 100 µM; TGI [50]: > 100 µM; TGI [51]: > 100 µM; TGI [52]: > 100 µM; TGI [53]: > 100 µM; TGI [54]: > 100 µM; TGI [55]: > 100 µM; TGI [57]: > 100 µM; TGI [58]: > 100 µM; TGI [59]: > 100 µM; TGI [60]: > 100 µM; TGI [63]: > 100 µM; TGI [64]: > 100 µM; TGI [66]: > 100 µM; TGI [68]: > 100 µM

Question: For `CCN(Cc1cc(Cl)cc(C)c1O)Cc1c(O)ccc2ccccc12`, which TGI [1] is on record?
Answer: 34.8 µM

Question: What about the TGI [2] of the same compound?
Answer: 35.9 µM

Question: And the TGI [3]?
Answer: 28.1 µM

Question: What about the TGI [4] of the same compound?
Answer: 42.5 µM

Question: What about the TGI [5] of the same compound?
Answer: 33.1 µM

Question: And the TGI [6]?
Answer: 26.4 µM

Question: What about the TGI [7] of the same compound?
Answer: 31.8 µM

Question: What about the TGI [8] of the same compound?
Answer: 32.8 µM

Question: And the TGI [9]?
Answer: 32.7 µM

Question: What about the TGI [10] of the same compound?
Answer: 37 µM

Question: And the TGI [11]?
Answer: 52.5 µM

Question: What about the TGI [12] of the same compound?
Answer: 40.9 µM

Question: And the TGI [13]?
Answer: 29.8 µM

Question: What about the TGI [14] of the same compound?
Answer: 32.7 µM

Question: And the TGI [15]?
Answer: 29.9 µM

Question: And the TGI [18]?
Answer: 26.2 µM

Question: What about the TGI [20] of the same compound?
Answer: 39.1 µM

Question: And the TGI [21]?
Answer: > 100 µM

Question: What about the TGI [22] of the same compound?
Answer: 31.4 µM

Question: And the TGI [23]?
Answer: 36.5 µM

Question: And the TGI [26]?
Answer: 31.5 µM

Question: And the TGI [27]?
Answer: 41 µM

Question: What about the TGI [28] of the same compound?
Answer: 29.4 µM

Question: And the TGI [29]?
Answer: 32 µM

Question: And the TGI [30]?
Answer: 34 µM

Question: And the TGI [31]?
Answer: 28.8 µM

Question: What about the TGI [32] of the same compound?
Answer: 34 µM

Question: And the TGI [33]?
Answer: 30.4 µM

Question: What about the TGI [34] of the same compound?
Answer: 31.3 µM

Question: And the TGI [35]?
Answer: 31 µM

Question: What about the TGI [36] of the same compound?
Answer: 31.6 µM

Question: What about the TGI [37] of the same compound?
Answer: 30.4 µM

Question: What about the TGI [38] of the same compound?
Answer: 69.7 µM

Question: And the TGI [39]?
Answer: 29 µM

Question: What about the TGI [40] of the same compound?
Answer: 33 µM

Question: What about the TGI [41] of the same compound?
Answer: 35.8 µM

Question: And the TGI [42]?
Answer: 27.4 µM

Question: And the TGI [43]?
Answer: 35.4 µM

Question: What about the TGI [44] of the same compound?
Answer: 30 µM

Question: And the TGI [45]?
Answer: 31.7 µM

Question: What about the TGI [46] of the same compound?
Answer: 29.8 µM

Question: What about the TGI [47] of the same compound?
Answer: 36 µM

Question: What about the TGI [49] of the same compound?
Answer: 34.8 µM

Question: What about the TGI [50] of the same compound?
Answer: 32.1 µM

Question: And the TGI [51]?
Answer: 28 µM

Question: What about the TGI [52] of the same compound?
Answer: 35.2 µM

Question: What about the TGI [54] of the same compound?
Answer: 33.1 µM

Question: And the TGI [55]?
Answer: 30.5 µM

Question: What about the TGI [56] of the same compound?
Answer: 31.1 µM

Question: What about the TGI [57] of the same compound?
Answer: 24.1 µM

Question: What about the TGI [58] of the same compound?
Answer: 37.7 µM

Question: What about the TGI [59] of the same compound?
Answer: 38 µM

Question: And the TGI [62]?
Answer: 35.8 µM

Question: And the TGI [63]?
Answer: 65.4 µM

Question: And the TGI [64]?
Answer: 38.8 µM

Question: What about the TGI [65] of the same compound?
Answer: 29.9 µM

Question: And the TGI [66]?
Answer: 42 µM

Question: What about the TGI [67] of the same compound?
Answer: 34.7 µM

Question: What about the TGI [68] of the same compound?
Answer: 31.2 µM
